Molecular target: T1, human RNR (histidine tagged human M1 and human M2 proteins) (Homo sapiens, UniProt P23921)
T1 construct: made in house; host or cells: Escherichia coli
T1 sequence (P23921 1-792): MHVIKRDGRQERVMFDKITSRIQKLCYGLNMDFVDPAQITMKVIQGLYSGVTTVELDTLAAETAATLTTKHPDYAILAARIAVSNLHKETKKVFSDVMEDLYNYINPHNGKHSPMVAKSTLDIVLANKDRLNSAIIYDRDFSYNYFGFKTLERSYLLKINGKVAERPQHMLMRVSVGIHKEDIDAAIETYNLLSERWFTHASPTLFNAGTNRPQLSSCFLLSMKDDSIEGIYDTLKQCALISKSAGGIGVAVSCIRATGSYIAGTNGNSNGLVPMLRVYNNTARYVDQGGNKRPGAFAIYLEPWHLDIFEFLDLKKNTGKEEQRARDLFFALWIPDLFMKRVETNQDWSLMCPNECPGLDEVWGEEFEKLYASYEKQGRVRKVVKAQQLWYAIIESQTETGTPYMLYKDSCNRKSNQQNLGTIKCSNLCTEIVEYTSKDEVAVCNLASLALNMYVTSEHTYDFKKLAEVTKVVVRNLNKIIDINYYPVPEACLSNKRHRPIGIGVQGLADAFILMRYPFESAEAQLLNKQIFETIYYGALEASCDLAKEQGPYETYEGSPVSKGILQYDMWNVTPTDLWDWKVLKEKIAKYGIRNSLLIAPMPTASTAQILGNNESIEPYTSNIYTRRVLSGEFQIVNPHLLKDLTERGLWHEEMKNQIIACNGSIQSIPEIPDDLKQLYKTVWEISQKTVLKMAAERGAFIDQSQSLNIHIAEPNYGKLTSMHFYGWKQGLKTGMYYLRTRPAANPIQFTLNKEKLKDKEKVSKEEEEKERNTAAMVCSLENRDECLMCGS
Experiment: Human RNR inhibition effect (dCDP formation from CDP)
Type: biochemical
Details: 10 μM CDP, 37° C. for 30 minutes, read-out: RNR inhibitory activity IC50
Method in brief: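 His-tagged human M1 (isoform 1) and N-terminal 59-aa-truncated M2 (isoform 2), E. coli-expressed, Ni-purified, preincubated 20 min with compound (1% DMSO). Reaction with 10 μM CDP, 2 mM ATP, 0.24 mM NADPH, 6 mM DTT, 4 mM Mg acetate, 100 mM KCl, 50 mM HEPES pH 7.2, 30 min at 37° C. dCDP formed quantified by reverse-phase HPLC after heat stop.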

Row | IC50 | Structure (SMILES)
1 | 790 nM | Cc1cccc([C@@H](C)[C@H](NS(=O)(=O)c2ccc(Cl)c3c2OCC=C3)c2n[nH]c(=O)o2)c1C [Example 295, 5-chloro-N-((1S,2R)-2-(2,3-dimethylphenyl)-1-(5-oxo-4,5-dihydro-1,3,4-oxadiazol-2-yl)propyl)-2H-chromene-8-sulfonamide]
2 | 300 nM | COc1ccc(-c2ccc(F)c([C@@H](C)[C@H](NS(=O)(=O)c3ccc(Cl)cc3OC)c3n[nH]c(=O)o3)c2C)cc1 [Example 298, 4-chloro-N-((1S,2R)-2-(4-fluoro-4′-methoxy-2-methyl-[1,1′-biphenyl]-3-yl)-1-(5-oxo-4,5-dihydro-1,3,4-oxadiazol-2-yl)propyl)-2-methoxybenzenesulfonamide]
3 | 940 nM | COc1cc(Cl)ccc1S(=O)(=O)N[C@H](c1n[nH]c(=O)o1)[C@H](C)c1c(F)ccc(-c2cc(F)cc(F)c2)c1C [Example 299, 4-chloro-2-methoxy-N-((1S,2R)-1-(5-oxo-4,5-dihydro-1,3,4-oxadiazol-2-yl)-2-(3′,4,5′-trifluoro-2-methyl-[1,1′-biphenyl]-3-yl)propyl)benzenesulfonamide]
4 | 340 nM | COc1cc(Cl)ccc1S(=O)(=O)N[C@H](c1n[nH]c(=O)o1)[C@H](C)c1c(F)ccc(-c2cccnc2)c1C [Example 300, 4-chloro-N-((1S,2R)-2-(6-fluoro-2-methyl-3-(pyridin-3-yl)phenyl)-1-(5-oxo-4,5-dihydro-1,3,4-oxadiazol-2-yl)propyl)-2-methoxybenzenesulfonamide]
5 | 290 nM | COc1cc(Cl)ccc1S(=O)(=O)N[C@H](c1n[nH]c(=O)o1)[C@H](C)c1c(F)ccc(-c2cc[nH]n2)c1C [Example 301, 4-chloro-N-((1S,2R)-2-(6-fluoro-2-methyl-3-(1H-pyrazol-3-yl)phenyl)-1-(5-oxo-4,5-dihydro-1,3,4-oxadiazol-2-yl)propyl)-2-methoxybenzenesulfonamide]
6 | 490 nM | COc1cc(Cl)ccc1S(=O)(=O)N[C@H](c1n[nH]c(=O)o1)[C@H](C)c1c(F)ccc(-c2ccc(Cl)cc2)c1C [Example 302, 4-chloro-N-((1S,2R)-2-(4′-chloro-4-fluoro-2-methyl-[1,1′-biphenyl]-3-yl)-1-(5-oxo-4,5-dihydro-1,3,4-oxadiazol-2-yl)propyl)-2-methoxybenzenesulfonamide]
7 | 160 nM | COc1cc(Cl)ccc1S(=O)(=O)N[C@H](c1n[nH]c(=O)o1)[C@H](C)c1c(F)ccc(-c2cn[nH]c2)c1C [Example 303, 4-chloro-N-((1S,2R)-2-(6-fluoro-2-methyl-3-(1H-pyrazol-4-yl)phenyl)-1-(5-oxo-4,5-dihydro-1,3,4-oxadiazol-2-yl)propyl)-2-methoxybenzensulfonamide]
8 | 160 nM | COc1cc(Cl)ccc1S(=O)(=O)N[C@H](c1n[nH]c(=O)o1)[C@H](C)c1c(F)ccc(-c2cnn(C(F)F)c2)c1C [Example 304, 4-chloro-N-((1S,2R)-2-(3-(1-(difluoromethyl)-1H-pyrazol-4-yl)-6-fluoro-2-methylphenyl)-1-(5-oxo-4,5-dihydro-1,3,4-oxadiazol-2-yl)propyl)-2-methoxybenzenesulfonamide]
9 | 240 nM | COc1cc(Cl)ccc1S(=O)(=O)N[C@H](c1n[nH]c(=O)o1)[C@H](C)c1c(F)ccc(-c2ccn(C)n2)c1C [Example 305, 4-chloro-N-((1S,2R)-2-(6-fluoro-2-methyl-3-(1-methyl-1H-pyrazol-3-yl)phenyl)-1-(5-oxo-4,5-dihydro-1,3,4-oxadiazol-2-yl)propyl)-2-methoxybenzenesulfonamide]
10 | 90 nM | COc1cc(Cl)ccc1S(=O)(=O)N[C@H](c1n[nH]c(=O)o1)[C@H](C)c1c(F)ccc(-c2cnn(C)c2)c1C [Example 306, 4-chloro-N-((1S,2R)-2-(6-fluoro-2-methyl-3-(1-methyl-1H-pyrazol-4-yl)phenyl)-1-(5-oxo-4,5-dihydro-1,3,4-oxadiazol-2-yl)propyl)-2-methoxybenzenesulfonamide]
11 | 180 nM | COc1cc(Cl)ccc1S(=O)(=O)N[C@H](c1n[nH]c(=O)o1)[C@H](C)c1c(F)ccc(-c2c[nH]nc2C)c1C [Example 308, 4-chloro-N-((1S,2R)-2-(6-fluoro-2-methyl-3-(3-methyl-1H-pyrazol-4-yl)phenyl)-1-(5-oxo-4,5-dihydro-1,3,4-oxadiazol-2-yl)propyl)-2-methoxybenzenesulfonamide]
12 | 170 nM | CCn1cc(-c2ccc(F)c([C@@H](C)[C@H](NS(=O)(=O)c3ccc(Cl)cc3OC)c3n[nH]c(=O)o3)c2C)cn1 [Example 310, 4-chloro-N-((1S,2R)-2-(3-(1-ethyl-1H-pyrazol-4-yl)-6-fluoro-2-methylphenyl)-1-(5-oxo-4,5-dihydro-1,3,4-oxadiazol-2-yl)propyl)-2-methoxybenzenesulfonamide]
13 | 220 nM | COc1cc(Cl)ccc1S(=O)(=O)N[C@H](c1n[nH]c(=O)o1)[C@H](C)c1c(F)ccc(-c2cnn(C3CC3)c2)c1C [Example 311, 4-chloro-N-((1S,2R)-2-(3-(1-cyclopropyl-1H-pyrazol-4-yl)-6-fluoro-2-methylphenyl)-1-(5-oxo-4,5-dihydro-1,3,4-oxadiazol-2-yl)propyl)-2-methoxybenzenesulfonamide]
14 | 220 nM | COc1cc(Cl)ccc1S(=O)(=O)N[C@H](c1n[nH]c(=O)o1)[C@H](C)c1c(F)ccc(-c2cnn(C3CCC3)c2)c1C [Example 312, 4-chloro-N-((1S,2R)-2-(3-(1-cyclobutyl-1H-pyrazol-4-yl)-6-fluoro-2-methylphenyl)-1-(5-oxo-4,5-dihydro-1,3,4-oxadiazol-2-yl)propyl)-2-methoxybenzenesulfonamide]
15 | 340 nM | COc1cc(Cl)ccc1S(=O)(=O)N[C@H](c1n[nH]c(=O)o1)[C@H](C)c1c(F)ccc(-c2ccc(Cl)nc2)c1C [Example 313, 4-chloro-N-((1S,2R)-2-(3-(6-chloropyridin-3-yl)-6-fluoro-2-methylphenyl)-1-(5-oxo-4,5-dihydro-1,3,4-oxadiazol-2-yl)propyl)-2-methoxybenzenesulfonamide]
16 | 260 nM | COc1ccc(-c2ccc(F)c([C@@H](C)[C@H](NS(=O)(=O)c3ccc(Cl)cc3OC)c3n[nH]c(=O)o3)c2C)cn1 [Example 314, 4-chloro-N-((1S,2R)-2-(6-fluoro-3-(6-methoxypyridin-3-yl)-2-methylphenyl)-1-(5-oxo-4,5-dihydro-1,3,4-oxadiazol-2-yl)propyl)-2-methoxybenzenesulfonamide]
17 | 190 nM | COc1cc(Cl)ccc1S(=O)(=O)N[C@H](c1n[nH]c(=O)o1)[C@H](C)c1c(F)ccc(-c2ccc(N3CCOCC3)nc2)c1C [Example 315, 4-chloro-N-((1S,2R)-2-(6-fluoro-2-methyl-3-(6-morpholinopyridin-3-yl)phenyl)-1-(5-oxo-4,5-dihydro-1,3,4-oxadiazol-2-yl)propyl)-2-methoxybenzenesulfonamide]
18 | 280 nM | COc1cc(Cl)ccc1S(=O)(=O)N[C@H](c1n[nH]c(=O)o1)[C@H](C)c1c(F)ccc(-c2cn(C)nc2C)c1C [Example 317, 4-chloro-N-((1S,2R)-2-(3-(1,3-dimethyl-1H-pyrazol-4-yl)-6-fluoro-2-methylphenyl)-1-(5-oxo-4,5-dihydro-1,3,4-oxadiazol-2-yl)propyl)-2-methoxybenzenesulfonamide]
19 | 540 nM | COc1cc(Cl)ccc1S(=O)(=O)N[C@H](c1n[nH]c(=O)o1)[C@H](C)c1c(F)ccc(-c2cncnc2)c1C [Example 318, 4-chloro-N-((1S,2R)-2-(6-fluoro-2-methyl-3-(pyrimidin-5-yl)phenyl)-1-(5-oxo-4,5-dihydro-1,3,4-oxadiazol-2-yl)propyl)-2-methoxybenzenesulfonamide]
20 | 280 nM | COc1ncc(-c2ccc(F)c([C@@H](C)[C@H](NS(=O)(=O)c3ccc(Cl)cc3OC)c3n[nH]c(=O)o3)c2C)cn1 [Example 319, 4-chloro-N-((1S,2R)-2-(6-fluoro-3-(2-methoxypyrimidin-5-yl)-2-methylphenyl)-1-(5-oxo-4,5-dihydro-1,3,4-oxadiazol-2-yl)propyl)-2-methoxybenzenesulfonamide]
21 | 600 nM | COc1cc(Cl)ccc1S(=O)(=O)N[C@H](c1n[nH]c(=O)o1)[C@H](C)c1c(F)ccc(-c2ccc(N3CCCCC3)nc2)c1C [Example 320, 4-chloro-N-((1S,2R)-2-(6-fluoro-2-methyl-3-(6-(piperidin-1-yl)pyridin-3-yl)phenyl)-1-(5-oxo-4,5-dihydro-1,3,4-oxadiazol-2-yl)propyl)-2-methoxybenzenesulfonamide]

Reference: patent publication US20200405697A1, “Antitumor Agent” (Taiho Pharmaceutical Co., Ltd, priority 2017, published 2020)
